Reference: US20240216413A1, “THIONUCLEOSIDES AS ANTIVIRAL AGENTS” (priority 2021, published 2024)
Where two headings read alike, the source gives them in different places.

Tests used:
Omicron [1] = assay: Anti-Omicron activity (Calu-3); type: cell-based, SARS-CoV-2
[2] = Cytotoxicity in Vero cells; settings: African green monkey, Vero cells (kidney)
[3] = Cytotoxicity in CEM cells; type: cell-based; settings: human, CEM lymphoblastoid cells
Protocol: (§1) The toxicity of the compounds was assessed in Vero, human PBM, CEM (human lymphoblastoid), MT-2, and HepG2 cells, as described previously (see Schinazi R. F., Sommadossi J.-P., Saalmann V., Cannon D. L., Xie M.-Y., Hart G. C., Smith G. A. & Hahn E. F. Antimicrob. Agents Chemother. 1990, 34, 1061-67). Cycloheximide was included as positive cytotoxic control, and untreated cells exposed to solvent were included as negative controls. The cytotoxicity IC50 or CC50 was obtained from the concentration-response curve using the median effective method described previously (see Chou T.-C. & Talalay P. Adv. Enzyme Regul. 1984, 22, 27-55; Belen'kii M. S. & Schinazi R. F. Antiviral Res. 1994, 25, 1-11).

Omicron [4] = assay: microbe, parasite or virus in culture; settings: for EC90: Severe acute respiratory syndrome coronavirus 2, Caco-2, read-out: Anti-Omicron Activity (Caco-2) EC90
SARS-CoV-2 [5] = assay: Anti-SARS-CoV-2 activity (Vero); type: cell-based; settings: Severe acute respiratory syndrome coronavirus 2, MOI 0.1, 48 hr
[6] = Cytotoxicity in Huh7 cells; type: cell-based; settings: human
[7] = Cytotoxicity in PBM cells; type: cell-based; settings: human
Protocol: as §1

in vitro [8] = settings: human, Caco-2
SARS-CoV-2 [9] = assay: Anti-SARS-CoV-2 activity, 3D primary culture (Organoids); type: cell-based
SARS-CoV-2 [10] = assay: Anti-SARS-CoV-2 activity (Calu3); type: cell-based
in vitro [11] = settings: human
HCoV-OC43 = assay: Anti-HCoV-OC43 activity; type: cell-based
SARS-CoV-2 [12] = assay: Anti-SARS-CoV-2 activity, 3D primary culture (HAE-ALI); type: cell-based; settings: Severe acute respiratory syndrome coronavirus 2, air-liquid interface
HepG2 cells = assay: Mitochondrial toxicity in HepG2 cells (MtDNA / rDNA); settings: Homo sapiens
[13] = tested on: rDNA (rRNA gene, nuclear reference); assay: as above; settings: human, HepG2 cells
[14] = tested on: mitochondrial DNA (COXII gene); assay: as above; settings: human, HepG2 cells
SARS-CoV-2 [15] = assay: Anti-SARS-CoV-2 activity (Caco2); settings: Severe acute respiratory syndrome coronavirus 2, Caco-2, 72 h; for EC50: read-out: Anti-SARS-CoV-2 Activity (Caco2) EC50
[16] = Severe acute respiratory syndrome coronavirus 2, Omicron, Calu-3, read-out: Anti-Omicron Activity (Calu-3) EC50
[17] = Severe acute respiratory syndrome coronavirus 2, Omicron, Calu-3, read-out: Anti-Omicron Activity (Calu-3) EC90
[18] = Severe acute respiratory syndrome coronavirus 2, Caco-2, read-out: Anti-Omicron Activity (Caco-2) EC50
[19] = Severe acute respiratory syndrome coronavirus 2, Calu-3, Calu3, MOI 1.0, 72 hr

## O=c1nc(NO)ccn1[C@@H]1O[C@H](CO)[C@@H](O)[C@H]1O [NHC, N4-hydroxycytidine]
Omicron [1]; [16]
  EC50: 0.4 µM
Omicron [1]; [17]
  EC90: 1.2 µM
[2]
  CC50: 16.5 µM
[3]
  CC50: 2.6 µM
Omicron [4]; [18]
  EC50: > 10 µM
Omicron [4]; Severe acute respiratory syndrome coronavirus 2, Caco-2, read-out: Anti-Omicron Activity (Caco-2) EC50, value in parentheses
  EC50: 13.3 µM

## CC(C)OC(=O)[C@H](C)N[P@](=O)(OC[C@H]1S[C@@H](n2ccc(N)nc2=O)[C@H](O)[C@@H]1O)Oc1ccccc1 [Compound 16, Isopropyl ((S)-(((2R,3S,4R,5R)-5-(4-amino-2-oxopyrimidin-1(2H)-yl)-3,4-dihydroxytetrahydrothiophen-2-yl)methoxy)(phenoxy)phosphoryl)-L-alaninate]
[2]
  CC50: > 100 µM
[3]
  CC50: > 100 µM
SARS-CoV-2 [5]
  EC50: > 10 µM
[6]
  CC50: > 100 µM
[7]
  CC50: > 100 µM

## O=c1ccn([C@@H]2S[C@H](CO)[C@@H](O)[C@H]2O)c(=O)[nH]1 [Compound 8, 1-((2R,3R,4S,5R)-3,4-dihydroxy-5-(hydroxymethyl)tetrahydrothiophen-2-yl)pyrimidine-2,4(1H,3H)-dione]
Omicron [1]; Severe acute respiratory syndrome coronavirus 2, Calu-3, read-out: Anti-Omicron Activity (Calu-3) EC50
  EC50: 0.9 to 1.3 µM
Omicron [1]; Severe acute respiratory syndrome coronavirus 2, Calu-3, read-out: Anti-Omicron Activity (Calu-3) EC90
  EC90: 2.7 to 4.4 µM
In vitro [8]
  CC50: > 100 µM
SARS-CoV-2 [9]; Severe acute respiratory syndrome coronavirus 2, 3D primary culture, organoids, read-out: Anti-SARS-CoV-2 Activity (Organoids) EC50
  EC50: 0.7 µM
SARS-CoV-2 [10]; [19]
  EC90: 3.5 µM
In vitro [11]
  CC50: > 100 µM
HCoV-OC43; Betacoronavirus 1, OC43, read-out: Anti-HCoV-OC43 Activity EC50
  EC50: 2.2 to 2.5 µM
HCoV-OC43; Betacoronavirus 1, OC43, read-out: Anti-HCoV-OC43 Activity EC90
  EC90: 6.1 to 7.3 µM
[2]
  CC50: 68.3 µM
[3]
  CC50: 20.5 µM
SARS-CoV-2 [12]
  EC50: 0.04 µM
  EC90: 0.1 µM
Omicron [4]; [18]
  EC50: 8.2 µM
Omicron [4]
  EC90: > 10 µM
HepG2 cells; HepG2, read-out: inhibition of MtDNA at 100 μM
  inhibition at 100 µM: < 1%
HepG2 cells; HepG2, read-out: inhibition of rDNA at 100 μM
  inhibition at 100 µM: 36.3%
[13]
  CC50 at 7 days: > 100 µM
[14]
  CC50 at 7 days: > 100 µM
SARS-CoV-2 [5]
  EC50: 0.4 µM
  EC90: 0.8 µM
[6]
  CC50: > 100 µM
SARS-CoV-2 [15]
  EC50: 1.1 µM
[7]
  CC50: > 100 µM

## Nc1ccn([C@@H]2S[C@H](CO)[C@@H](O)[C@H]2O)c(=O)n1 [Compound 9, 4-amino-1-((2R,3R,4S,5R)-3,4-dihydroxy-5-(hydroxymethyl)tetrahydrothiophen-2-yl)pyrimidin-2(1H)-one]
SARS-CoV-2 [10]; [19]
  EC50: 1.9 µM
  EC90: 3.9 µM
[2]
  CC50: 71.8 µM
[3]
  CC50: 28 µM
SARS-CoV-2 [5]
  EC50: 0.2 µM
  EC90: 4.5 µM
[6]
  CC50: 93.1 µM
SARS-CoV-2 [15]
  EC50: 4.9 µM
SARS-CoV-2 [15]; read-out: Anti-SARS-CoV-2 Activity (Caco2) EC90
  EC90: > 10 µM
[7]
  CC50: > 100 µM

## C[C@@H]1C[C@@H]([C@H](O)CC2CC(=O)NC(=O)C2)C(=O)[C@@H](C)C1 [cyclohexamide, Cycloheximide, reference compound]
In vitro [8]
  CC50: 10 µM
In vitro [11]
  CC50: 10 µM

## CCC(CC)COC(=O)[C@H](C)N[P@](=O)(OC[C@H]1O[C@@](C#N)(c2ccc3c(N)ncnn23)[C@H](O)[C@@H]1O)Oc1ccccc1 [Remdesivir, reference compound]
Omicron [1]; [16]
  EC50: 0.2 to 0.3 µM
Omicron [1]; [17]
  EC90: 0.6 to 0.7 µM
SARS-CoV-2 [9]; Severe acute respiratory syndrome coronavirus 2, read-out: Anti-SARS-CoV-2 Activity (Organoids) EC50
  EC50: 0.7 µM
SARS-CoV-2 [9]; Severe acute respiratory syndrome coronavirus 2, 3D primary culture, organoids
  EC90: 1.5 µM
SARS-CoV-2 [10]; Severe acute respiratory syndrome coronavirus 2, Calu-3, 72 h
  EC50: 0.1 µM
HCoV-OC43; Betacoronavirus 1, OC43; read-out: Anti-HCoV-OC43 Activity EC50
  EC50: 0.007 to 0.03 µM
HCoV-OC43; Betacoronavirus 1, OC43; read-out: Anti-HCoV-OC43 Activity EC90
  EC90: 0.03 to 0.08 µM
[3]
  CC50: 12 µM
SARS-CoV-2 [12]
  EC50: 0.6 µM
Omicron [4]; [18]
  EC50: 0.05 µM
Omicron [4]
  EC90: 0.4 µM
[6]
  CC50: 1.5 µM
[7]
  CC50: 6.4 µM

## CC(C)OC(=O)[C@H](C)N[P@](=O)(OC[C@H]1S[C@@H](n2ccc(=O)[nH]c2=O)[C@H](O)[C@@H]1O)Oc1ccccc1 [Compound 13, Isopropyl ((S)-(((2R,3S,4R,5R)-5-(2,4-dioxo-3,4-dihydropyrimidin-1(2H)-yl)-3,4-dihydroxytetrahydrothiophen-2-yl)methoxy)(phenoxy)phosphoryl)-L-alaninate]
[2]
  CC50: > 100 µM
[3]
  CC50: > 100 µM
SARS-CoV-2 [5]
  EC50: > 10 µM
[6]
  CC50: > 100 µM
[7]
  CC50: > 100 µM

## O=c1nc(NO)ccn1[C@@H]1S[C@H](CO)C(O)C1O (stereo in doubt) [Compound 17, 1-((2R,3S,4R,5R)-3,4-dihydroxy-5-(hydroxymethyl)-tetrahydrothiophen-2-yl)-4-(hydroxyamino) pyrimidin-2(1H)-one]
SARS-CoV-2 [10]; [19]
  EC50: < 10 µM
[2]
  CC50: > 100 µM
SARS-CoV-2 [5]
  EC50: < 10 µM
[6]
  CC50: > 100 µM
[7]
  CC50: > 100 µM
